Source: US11173151B2, “Substituted triazole derivatives and uses thereof” (BAYER AKTIENGESELLSCHAFT, priority 2017, dated 2021)
Like-named read-outs stand apart in the source and are kept apart here.

Columns and labels:
human V1a receptor = target: T1, human V1a receptor (Homo sapiens, UniProt P37288); assay: Cellular in vitro assay for determining vasopressin receptor activity, V1a receptor cell line (CHO, aequorin luminescence); type: cell-based; conditions: for IC50: CHO cell line transfected with human V1a receptor, [Arg]-vasopressin at EC50 concentration, read-out: IC50 hV1a; for ratio IC50 hV2/hV1a: selectivity ratio IC50 hV2 / IC50 hV1a
T1 construct: expressed in transfected cells; host or cells: CHO K1 (ATCC), also stably transfected with a modified aequorin
Summary of the method: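 Cells were plated the day before in medium containing 5 μg/ml coelenterazine and kept at 37° C. Compounds at various concentrations were then added for 10 minutes. Next, [Arg]-vasopressin at EC50 was applied and light output recorded at once, yielding IC50.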

human V2 receptor = target: T2, human V2 receptor (Homo sapiens, UniProt P30518); assay: Cellular in vitro assay for determining vasopressin receptor activity, V2 receptor cell line (CHO, CRE-luciferase); type: cell-based; conditions: CHO cell line transfected with human V2 receptor, [Arg8]-vasopressin at EC50 concentration, read-out: IC50 hV2
T2 construct: expressed in transfected cells; host or cells: CHO K1 (ATCC) expressing firefly luciferase under a CRE-responsive promoter
T2 sequence (P30518 whole entry): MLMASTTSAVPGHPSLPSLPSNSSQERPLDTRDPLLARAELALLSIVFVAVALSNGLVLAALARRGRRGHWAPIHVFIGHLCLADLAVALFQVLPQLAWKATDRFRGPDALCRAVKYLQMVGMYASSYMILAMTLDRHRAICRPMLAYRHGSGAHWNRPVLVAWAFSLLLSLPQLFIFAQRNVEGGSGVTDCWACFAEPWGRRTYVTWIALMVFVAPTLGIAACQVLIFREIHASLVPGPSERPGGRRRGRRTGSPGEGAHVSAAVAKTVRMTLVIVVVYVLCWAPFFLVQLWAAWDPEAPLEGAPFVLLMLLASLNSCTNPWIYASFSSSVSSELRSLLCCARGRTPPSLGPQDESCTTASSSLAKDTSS

T1 sequence (P37288 whole entry): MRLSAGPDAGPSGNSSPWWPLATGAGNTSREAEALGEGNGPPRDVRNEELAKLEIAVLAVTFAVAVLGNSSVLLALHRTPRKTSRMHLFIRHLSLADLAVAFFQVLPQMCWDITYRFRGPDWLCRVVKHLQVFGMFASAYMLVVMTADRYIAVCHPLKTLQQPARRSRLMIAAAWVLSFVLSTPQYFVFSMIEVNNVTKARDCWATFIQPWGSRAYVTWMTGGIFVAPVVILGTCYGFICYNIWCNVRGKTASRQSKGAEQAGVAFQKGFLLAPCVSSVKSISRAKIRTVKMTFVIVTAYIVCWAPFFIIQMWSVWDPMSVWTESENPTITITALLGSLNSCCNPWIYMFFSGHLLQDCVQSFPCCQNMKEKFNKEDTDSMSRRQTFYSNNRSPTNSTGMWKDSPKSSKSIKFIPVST

SMILES	IC50 (human V1a receptor)	ratio IC50 hV2/hV1a (human V1a receptor)	IC50 (human V2 receptor; 3 hours)	IC50 (human V2 receptor)
CCN(OC)C(=O)c1ccccc1-n1cnc(Cn2nc(-c3ccc(Cl)cc3)n(C[C@H](O)C(F)(F)F)c2=O)n1 [Example 261, 2-[3-({3-(4-Chlorophenyl)-5-oxo-4-[(2S)-3,3,3-trifluoro-2-hydroxypropyl]-4,5-dihydro-1H-1,2,4-triazol-1-yl}methyl)-1H-1,2,4-triazol-1-yl]-N-ethyl-N-methoxybenzamide]	1.45 nM	310.3	450 nM	
O=C(c1cccc(Cl)c1-n1cnc(Cn2nc(-c3ccc(Cl)cc3)n(C[C@@H](O)C(F)(F)F)c2=O)n1)N1CCC[C@@H]1C(F)(F)F [Example 404, 5-(4-Chlorophenyl)-2-{[1-(2-chloro-6-{[(2R)-2-(trifluoromethyl)pyrrolidin-1-yl]carbonyl}phenyl)-1H-1,2,4-triazol-3-yl]methyl}-4-[(2R)-3,3,3-trifluoro-2-hydroxypropyl]-2,4-dihydro-3H-1,2,4-triazol-3-one]	315 nM	36.5		11500 nM
COC[C@H]1CCCN1C(=O)c1cccc(C(F)(F)F)c1-n1cnc(Cn2nc(-c3ccc(Cl)cc3)n(C[C@H](O)C(F)(F)F)c2=O)n1 [Example 416, 5-(4-Chlorophenyl)-2-({1-[2-{[(2R)-2-(methoxymethyl)pyrrolidin-1-yl]carbonyl}-6-(trifluoromethyl)phenyl]-1H-1,2,4-triazol-3-yl}methyl)-4-[(2S)-3,3,3-trifluoro-2-hydroxypropyl]-2,4-dihydro-3H-1,2,4-triazol-3-one]	51.5 nM	113.6		5850 nM
C[C@H](NC(=O)c1ccccc1-n1cnc(Cn2nc(-c3ccc(Cl)cc3)n(C[C@H](O)C(F)(F)F)c2=O)n1)C(N)=O [Example 237, N-[(2S)-1-Amino-1-oxopropan-2-yl]-2-[3-({3-(4-chlorophenyl)-5-oxo-4-[(2S)-3,3,3-trifluoro-2-hydroxypropyl]-4,5-dihydro-1H-1,2,4-triazol-1-yl}methyl)-1H-1,2,4-triazol-1-yl]benzamide]	15.5 nM	28.7	445 nM	
O=C(NCc1ccco1)c1ccccc1-n1cnc(Cn2nc(-c3ccc(Cl)cc3)n(C[C@H](O)C(F)(F)F)c2=O)n1 [Example 315, 2-[3-({3-(4-Chlorophenyl)-5-oxo-4-[(2S)-3,3,3-trifluoro-2-hydroxypropyl]-4,5-dihydro-1H-1,2,4-triazol-1-yl}methyl)-1H-1,2,4-triazol-1-yl]-N-(furan-2-ylmethyl)benzamide]	4.15 nM	37.3	155 nM	
O=C(NC1CC1)c1cccc(C(F)(F)F)c1-n1cnc(Cn2nc(-c3ccc(Cl)cc3)n(C[C@H](O)C(F)(F)F)c2=O)n1 [Example 415, 2-[3-({3-(4-Chlorophenyl)-5-oxo-4-[(2S)-3,3,3-trifluoro-2-hydroxypropyl]-4,5-dihydro-1H-1,2,4-triazol-1-yl}methyl)-1H-1,2,4-triazol-1-yl]-N-cyclopropyl-3-(trifluoromethyl)benzamide]	53.5 nM	28.0		1500 nM
N#CCNC(=O)c1ccccc1-n1cnc(Cn2nc(-c3ccc(Cl)cc3)n(C[C@H](O)C(F)(F)F)c2=O)n1 [Example 252, 2-[3-({3-(4-Chlorophenyl)-5-oxo-4-[(2S)-3,3,3-trifluoro-2-hydroxypropyl]-4,5-dihydro-1H-1,2,4-triazol-1-yl}methyl)-1H-1,2,4-triazol-1-yl]-N-(cyanomethyl)benzamide]	7.6 nM	33.6	255 nM	
O=C(NC1CC1F)c1cccnc1-n1cnc(Cn2nc(-c3ccc(Cl)cc3)n(C[C@H](O)C(F)(F)F)c2=O)n1 (mixture of isomers) [Example 503]	5.55 nM	38.7		215 nM
NC(=O)C1CCCN1C(=O)c1cccc(Cl)c1-n1cnc(Cn2nc(-c3ccc(Cl)cc3)n(C[C@@H](O)C(F)(F)F)c2=O)n1 (mixture of isomers) [Example 400, 1-{3-Chloro-2-[3-({3-(4-chlorophenyl)-5-oxo-4-[(2R)-3,3,3-trifluoro-2-hydroxypropyl]-4,5-dihydro-1H-1,2,4-triazol-1-yl}methyl)-1H-1,2,4-triazol-1-yl]benzoyl}-prolinamide]	570 nM	56.1		32000 nM
NC(CNC(=O)c1ncccc1-n1cnc(Cn2nc(-c3ccc(Cl)cc3)n(C[C@@H](O)C(F)(F)F)c2=O)n1)C(F)(F)F (mixture of isomers) [Example 484, N-[2-Amino-3,3,3-trifluoropropyl]-3-[3-({3-(4-chlorophenyl)-5-oxo-4-[(2R)-3,3,3-trifluoro-2-hydroxypropyl]-4,5-dihydro-1H-1,2,4-triazol-1-yl}methyl)-1H-1,2,4-triazol-1-yl]pyridine-2-carboxamide]	210 nM	44.8		9400 nM

Other lines, results leading:

IC50 (human V1a receptor)	ratio IC50 hV2/hV1a (human V1a receptor)	IC50 (human V2 receptor; 3 hours)	IC50 (human V2 receptor)	SMILES
1.85 nM	675.7	1250 nM		O=C(c1ccccc1-n1cnc(Cn2nc(-c3ccc(Cl)cc3)n(C[C@H](O)C(F)(F)F)c2=O)n1)N1CCSCC1 [Example 311, 5-(4-Chlorophenyl)-2-({1-[2-(thiomorpholin-4-ylcarbonyl)phenyl]-1H-1,2,4-triazol-3-yl}methyl)-4-[(2S)-3,3,3-trifluoro-2-hydroxypropyl]-2,4-dihydro-3H-1,2,4-triazol-3-one]
7.65 nM	66.0	505 nM		O=C(Nc1ncccc1-n1cnc(Cn2nc(-c3ccc(Cl)cc3)n(C[C@H](O)C(F)(F)F)c2=O)n1)c1cncc(F)c1 [Example 93]
4.8 nM	230.2	1100 nM		CS(=O)(=O)CC(=O)Nc1cccnc1-n1cnc(Cn2nc(-c3ccc(Cl)cc3)n(C[C@H](O)C(F)(F)F)c2=O)n1 [Example 49, N-{2-[3-({3-(4-Chlorophenyl)-5-oxo-4-[(2S)-3,3,3-trifluoro-2-hydroxypropyl]-4,5-dihydro-1H-1,2,4-triazol-1-yl}methyl)-1H-1,2,4-triazol-1-yl]pyridin-3-yl}-2-(methylsulfonyl)acetamide]
15 nM	74.7	1120 nM		O=C(Nc1ncccc1-n1cnc(Cn2nc(-c3ccc(Cl)cc3)n(C[C@H](O)C(F)(F)F)c2=O)n1)c1ccncn1 [Example 143]
1950 nM	4.0	7870 nM		CC(C)(N)CNc1ccncc1-n1cnc(Cn2nc(-c3ccc(Cl)cc3)n(C[C@H](O)C(F)(F)F)c2=O)n1 [Example 1, 2-[(1-{4-[(2-Amino-2-methylpropyl)amino]pyridin-3-yl}-1H-1,2,4-triazol-3-yl)methyl]-5-(4-chlorophenyl)-4-[(2S)-3,3,3-trifluoro-2-hydroxypropyl]-2,4-dihydro-3H-1,2,4-triazol-3-one]
30.5 nM	17.4		530 nM	COC[C@H]1CCCN1C(=O)c1cccnc1-n1cnc(Cn2nc(-c3ccc(Cl)cc3)n(C[C@H](O)C(F)(F)F)c2=O)n1 [Example 501, 5-(4-Chlorophenyl)-2-{[1-(3-{[(2R)-2-(methoxymethyl)pyrrolidin-1-yl]carbonyl}pyridin-2-yl)-1H-1,2,4-triazol-3-yl]methyl}-4-[(2S)-3,3,3-trifluoro-2-hydroxypropyl]-2,4-dihydro-3H-1,2,4-triazol-3-one]
19.3 nM	40.8	785 nM		O=c1n(Cc2ncn(-c3cnccc3N3CCOCC3)n2)nc(-c2ccc(Cl)cc2)n1C[C@H](O)C(F)(F)F [Example 15, 5-(4-Chlorophenyl)-2-({1-[4-(morpholin-4-yl)pyridin-3-yl]-1H-1,2,4-triazol-3-yl}methyl)-4-[(2S)-3,3,3-trifluoro-2-hydroxypropyl]-2,4-dihydro-3H-1,2,4-triazol-3-one]
74.5 nM	98.7	7350 nM		O=C1CCC(NC(=O)c2ccccc2-n2cnc(Cn3nc(-c4ccc(Cl)cc4)n(CC(O)C(F)(F)F)c3=O)n2)CN1 (single isomer, unassigned) [Example 192, 2-[3-({3-(4-Chlorophenyl)-5-oxo-4-[3,3,3-trifluoro-2-hydroxypropyl]-4,5-dihydro-1H-1,2,4-triazol-1-yl}methyl)-1H-1,2,4-triazol-1-yl]-N-[6-oxopiperidin-3-yl]benzamide]
710 nM	6.0	4250 nM		NC(=O)[C@@H]1CCCN1c1ccncc1-n1cnc(Cn2nc(-c3ccc(Cl)cc3)n(C[C@H](O)C(F)(F)F)c2=O)n1 [Example 23, 1-{3-[3-({3-(4-Chlorophenyl)-5-oxo-4-[(2S)-3,3,3-trifluoro-2-hydroxypropyl]-4,5-dihydro-1H-1,2,4-triazol-1-yl}methyl)-1H-1,2,4-triazol-1-yl]pyridin-4-yl}-L-prolinamide]
150 nM	139.3		20900 nM	O=C(c1ncccc1-n1cnc(Cn2nc(-c3ccc(Cl)cc3)n(C[C@@H](O)C(F)(F)F)c2=O)n1)N1CCCCC1 [Example 471, 5-(4-chlorophenyl)-2-({1-[2-(piperidin-1-ylcarbonyl)pyridin-3-yl]-1H-1,2,4-triazol-3-yl}methyl)-4-[(2R)-3,3,3-trifluoro-2-hydroxypropyl]-2,4-dihydro-3H-1,2,4-triazol-3-one]
1.25 nM	92.0	115 nM		CCC(C)NC(=O)c1ccccc1-n1cnc(Cn2nc(-c3ccc(Cl)cc3)n(C[C@H](O)C(F)(F)F)c2=O)n1 (mixture of isomers) [Example 204, N-[Butan-2-yl]-2-[3-({3-(4-chlorophenyl)-5-oxo-4-[(2S)-3,3,3-trifluoro-2-hydroxypropyl]-4,5-dihydro-1H-1,2,4-triazol-1-yl}methyl)-1H-1,2,4-triazol-1-yl]benzamide]
